US20200222474A1, “COMPOSITIONS AND METHODS FOR INCREASING PHYTOCHEMICAL BIOAVAILABLITY AND BIOACTIVITY” (North Carolina State University, priority 2017, published 2020)

Key:
[1] = test system: L. jensenii ATCC 25258, 62G, DSM 20557; assay: Phenotypic growth assay (OD600); format: cell-based; settings: SDM + 1% (w/v) carbohydrate (0.5% esculin), 37° C., 30 hours; corrected to medium without carbohydrate
Description: (§1) Phenotypic growth assays were performed using 1% (v/v) overnight cultures of L. acidophilus strains (Table 2) and other Lactobacillus species (Table 3) grown on SDM supplemented with 1% (w/v) glucose to inoculate 200 μL of SDM supplemented with 1% (w/v) of the examined carbohydrate (0.5% in the case of esculin) in 96-well microplate wells (Corning Costar, Corning, N.Y., USA) in duplicate or triplicate wells, respectively. The microplates were sealed with clear adhesive film, incubated at 37° C. in a Fluostar Optima microplate reader (BMG Labtech, Cary, N.C., USA), and the cell optical density (OD600) was monitored for 30 hours.

L. acidophilus LA-1 = assay: Phenotypic growth assay (OD600); format: cell-based; settings: SDM + 1% (w/v) carbohydrate (0.5% esculin), 37° C., 30 hours; corrected to medium without carbohydrate
Description: as §1

[2] = test system: L. crispatus ATCC 33820, DSM 20584; assay: Phenotypic growth assay (OD600); format: cell-based; settings: SDM + 1% (w/v) carbohydrate (0.5% esculin), 37° C., 30 hours; corrected to medium without carbohydrate
Description: as §1

[3] = test system: L. amyloverus ATCC 33620, DSM 20531; assay: Phenotypic growth assay (OD600); format: cell-based; settings: SDM + 1% (w/v) carbohydrate (0.5% esculin), 37° C., 30 hours; corrected to medium without carbohydrate
Description: as §1

L. animalis DSM 20602 = assay: Phenotypic growth assay (OD600); format: cell-based; settings: SDM + 1% (w/v) carbohydrate (0.5% esculin), 37° C., 30 hours; corrected to medium without carbohydrate
Description: as §1

L. gasseri ATCC 33323 = assay: Phenotypic growth assay (OD600); format: cell-based; settings: SDM + 1% (w/v) carbohydrate (0.5% esculin), 37° C., 30 hours; corrected to medium without carbohydrate
Description: as §1

L. fermentum ATCC 14931 = assay: Phenotypic growth assay (OD600); format: cell-based; settings: SDM + 1% (w/v) carbohydrate (0.5% esculin), 37° C., 30 hours; corrected to medium without carbohydrate
Description: as §1

L. johnsonii ATCC 33200 = assay: Phenotypic growth assay (OD600); format: cell-based; settings: SDM + 1% (w/v) carbohydrate (0.5% esculin), 37° C., 30 hours; corrected to medium without carbohydrate
Description: as §1

[4] = test system: L. intestinalis Th4, ATCC 49335, DSM 6629; assay: Phenotypic growth assay (OD600); format: cell-based; settings: SDM + 1% (w/v) carbohydrate (0.5% esculin), 37° C., 30 hours; corrected to medium without carbohydrate
Description: as §1

[5] = test system: L. rhanmosus GG (ATCC 53103); assay: Phenotypic growth assay (OD600); format: cell-based; settings: SDM + 1% (w/v) carbohydrate (0.5% esculin), 37° C., 30 hours; corrected to medium without carbohydrate
Description: as §1

L. helveticus CNRZ32 = assay: Phenotypic growth assay (OD600); format: cell-based; settings: SDM + 1% (w/v) carbohydrate (0.5% esculin), 37° C., 30 hours; corrected to medium without carbohydrate
Description: as §1

[6] = test system: L. reuteri (ATCC 23272, DSM 20016); assay: Phenotypic growth assay (OD600); format: cell-based; settings: SDM + 1% (w/v) carbohydrate (0.5% esculin), 37° C., 30 hours; corrected to medium without carbohydrate
Description: as §1

[7] = test system: L. plantarum sp. plantarum ATCC 14917, LA70; assay: Phenotypic growth assay (OD600); format: cell-based; settings: SDM + 1% (w/v) carbohydrate (0.5% esculin), 37° C., 30 hours; corrected to medium without carbohydrate
Description: as §1

NCK2418 (ΔLBA0227) = assay: Phenotypic growth analysis of deletion mutant (PTS EIIC); format: cell-based, Lactobacillus acidophilus; settings: compared with background Δupp strain
Description: as §1
Construction of gene deletion mutants. The L. acidophilus NCFM genes LBA0225 and LBA0726, both encoding P-Bgl of glycoside hydrolase family 1 (GH1) enzymes in addition to the LBA0227 and LBA0725 genes encoding an EIIC and an EIICBA components of two PTS systems, respectively, were deleted using the upp-based counterselectable gene replacement system. Briefly, in-frame deletions were constructed by amplifying 650-750 bp of the up- and downstream flanking regions of the deletion targets with two primer pairs (e.g., LBA0225A/LBA0225B and LBA0225C/LBA0225D; Table 4). The resulting purified products were joined by splicing using overlap extension PCR (SOE-PCR63) and amplified to establish the deletion alleles. The SOE-PCR products, that include flanking restriction enzyme sites, were cloned within the BamHI and SacI/EcoRI sites of the pTRK935 integration vector and transformed into E. coli EC101. The resulting recombinant plasmids (pTRK1113-6) were confirmed by DNA sequencing and electroporated into L. acidophilus NCK1910 (Table 2) that contains the pTRK669 helper plasmid, and the recovery of the single- and double-crossover recombinants was performed as previously described. Recombinants carrying the new gene deletion alleles were isolated by colony PCR using primer pairs denoted up/down (e.g., LBA0225up/LBA0225down), which anneal to the flanking regions of the amplicons. Sequence integrity and in-frame deletions were verified by DNA sequencing employing the aforementioned primer pairs and primer denoted mid (e.g., LBA0225mid). The mutations were in-frame deletions of 90-96% of the coding regions.
To establish the functional significance of these two loci, single deletions of each PTS EII and P-Bgl gene, and a double deletion of both P-Bgl genes were constructed using the upp-based counter-selectable gene replacement system (Table 2) and the growth phenotypes of the mutant strains were analyzed (FIG. 3). […]

Row | SMILES | Growth (OD600 max class) of L. jensenii ATCC 25258, 62G, DSM 20557 [1] | Growth (OD600 max class) of L. acidophilus LA-1 (L. acidophilus LA-1) | Growth (OD600 max class) of L. crispatus ATCC 33820, DSM 20584 [2] | Growth (OD600 max class) of L. amyloverus ATCC 33620, DSM 20531 [3] | Growth (OD600 max class) of L. animalis DSM 20602 (L. animalis DSM 20602) | Growth (OD600 max class) of L. gasseri ATCC 33323 (L. gasseri ATCC 33323) | Growth (OD600 max class) of L. fermentum ATCC 14931 (L. fermentum ATCC 14931) | Growth (OD600 max class) of L. johnsonii ATCC 33200 (L. johnsonii ATCC 33200) | Growth (OD600 max class) of L. intestinalis Th4, ATCC 49335, DSM 6629 [4] | Growth (OD600 max class) of L. rhanmosus GG (ATCC 53103) [5] | Growth (OD600 max class) of L. helveticus CNRZ32 (L. helveticus CNRZ32) | Growth (OD600 max class) of L. reuteri (ATCC 23272, DSM 20016) [6] | Growth (OD600 max class) of L. plantarum sp. plantarum ATCC 14917, LA70 [7] | growth of the ΔLBA0227 mutant (inactive EIIC) (NCK2418 (ΔLBA0227))
1 | OCc1ccccc1O[C@@H]1O[C@H](CO)[C@@H](O)[C@H](O)[C@H]1O [Salicin] | ++ (“++” signifies 0.6 > OD600 max > 0.3.) | +++ (“+++” signifies OD600 max > 0.6.) | +++ (“+++” signifies OD600 max > 0.6.) | − (“−” signifies OD600 max < 0.1.) | + (“+” signifies 0.3 > OD600 max > 0.1.) | ++ (“++” signifies 0.6 > OD600 max > 0.3.) | − (“−” signifies OD600 max < 0.1.) | + (“+” signifies 0.3 > OD600 max > 0.1.) | − (“−” signifies OD600 max < 0.1.) | +++ (“+++” signifies OD600 max > 0.6.) | − (“−” signifies OD600 max < 0.1.) | − (“−” signifies OD600 max < 0.1.) | +++ (“+++” signifies OD600 max > 0.6.) | invariant
2 | O=c1ccc2cc(O[C@@H]3O[C@H](CO)[C@@H](O)[C@H](O)[C@H]3O)c(O)cc2o1 [Esculin] | ++ (“++” signifies 0.6 > OD600 max > 0.3.) | +++ (“+++” signifies OD600 max > 0.6.) | ++ (“++” signifies 0.6 > OD600 max > 0.3.) | − (“−” signifies OD600 max < 0.1.) | + (“+” signifies 0.3 > OD600 max > 0.1.) | ++ (“++” signifies 0.6 > OD600 max > 0.3.) | − (“−” signifies OD600 max < 0.1.) | − (“−” signifies OD600 max < 0.1.) | − (“−” signifies OD600 max < 0.1.) | ++ (“++” signifies 0.6 > OD600 max > 0.3.) | − (“−” signifies OD600 max < 0.1.) | − (“−” signifies OD600 max < 0.1.) | ++ (“++” signifies 0.6 > OD600 max > 0.3.) | invariant
3 | N#C[C@H](O[C@@H]1O[C@H](CO[C@@H]2O[C@H](CO)[C@@H](O)[C@H](O)[C@H]2O)[C@@H](O)[C@H](O)[C@H]1O)c1ccccc1 [Amygdalin] | + (“+” signifies 0.3 > OD600 max > 0.1.) | ++ (“++” signifies 0.6 > OD600 max > 0.3.) | − (“−” signifies OD600 max < 0.1.) | − (“−” signifies OD600 max < 0.1.) | − (“−” signifies OD600 max < 0.1.) | − (“−” signifies OD600 max < 0.1.) | − (“−” signifies OD600 max < 0.1.) | − (“−” signifies OD600 max < 0.1.) | − (“−” signifies OD600 max < 0.1.) | +++ (“+++” signifies OD600 max > 0.6.) | + (“+” signifies 0.3 > OD600 max > 0.1.) | − (“−” signifies OD600 max < 0.1.) | +++ (“+++” signifies OD600 max > 0.6.) | abolished
